By IC50 is commonly meant the point on the concentration scale where inhibition reaches its midpoint.

The target in the first assay is T1, Axl (Homo sapiens, UniProt P30530).
T1 construct: endogenous in cells; host or cells: HeLa cells
T1 sequence (P30530 26-894): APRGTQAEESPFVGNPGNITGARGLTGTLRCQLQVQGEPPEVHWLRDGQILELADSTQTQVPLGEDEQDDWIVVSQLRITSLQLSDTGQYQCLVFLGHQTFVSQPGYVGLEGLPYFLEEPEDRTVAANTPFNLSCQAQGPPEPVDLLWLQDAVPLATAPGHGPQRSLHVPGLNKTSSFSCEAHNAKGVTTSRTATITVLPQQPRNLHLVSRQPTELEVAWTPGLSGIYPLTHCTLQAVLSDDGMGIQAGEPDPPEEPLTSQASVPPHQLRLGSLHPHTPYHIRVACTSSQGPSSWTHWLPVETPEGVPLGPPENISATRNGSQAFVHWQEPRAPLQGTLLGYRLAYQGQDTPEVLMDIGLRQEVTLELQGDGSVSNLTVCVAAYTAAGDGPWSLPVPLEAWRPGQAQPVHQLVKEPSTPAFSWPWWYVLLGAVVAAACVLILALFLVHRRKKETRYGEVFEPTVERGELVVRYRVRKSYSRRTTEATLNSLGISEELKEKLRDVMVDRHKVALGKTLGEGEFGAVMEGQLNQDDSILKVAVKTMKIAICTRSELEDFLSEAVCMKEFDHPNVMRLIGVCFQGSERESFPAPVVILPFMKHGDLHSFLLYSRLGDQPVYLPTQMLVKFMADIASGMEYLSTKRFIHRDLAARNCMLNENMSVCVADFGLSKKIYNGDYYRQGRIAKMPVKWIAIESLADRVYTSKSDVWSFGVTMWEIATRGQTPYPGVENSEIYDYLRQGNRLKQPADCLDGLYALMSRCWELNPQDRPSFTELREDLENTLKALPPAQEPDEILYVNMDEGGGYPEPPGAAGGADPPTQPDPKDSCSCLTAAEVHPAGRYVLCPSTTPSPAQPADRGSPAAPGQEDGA
Kind of assay: Phospho-Akt In-Cell Western Assay (inhibition of Axl activity after Axl-antibody cross-linking). The settings on record: Hela cells, phospho-Akt chemiluminescence normalized to relative cell number; compounds of formula (Ia), Table 1; read-out: IC50. The class given is cell-based. As for the experimental part:
The compounds of the invention were tested in the following assay for their ability to inhibit Axl activity.
Phospho-Akt In-Cell Western Assay
• Cell culture plate: 96 well assay plate (Corning 3610), white, clear bottom, tissue-culture treated. • Cells: Hela cells. • Starvation medium: For Axl stimulation: 0.5% FCS (fetal calf serum) in DMEM, plus Axl/Fc (extracellular domain of AXL fused to immunoglobulin Fc region) (R&D, 154-AL) 500 ng/mL. • For EGF (epidermal growth factor) stimulation: 0.5% FCS in DMEM (Dulbecco's modified Eagles medium). • Poly-L-Lysine 0.01% solution (the working solution): […], dilute In PBS (phosphate buffered saline). • Axl antibody cross-linking: • 1st: Mouse anti-Axl (R&D, MAB154). • 2nd: Biotin-SP-conjugated AffiniPure goat anti-mouse IgG (H+ L) (Jackson ImmunoResearch #115-065-003). • Fixing buffer: 4% formaldehyde in PBS. • Wash buffer: 0.1% TritonX-100 in PBS. • Quenching buffer: 3% H2O2, 0.1% Azide in wash buffer, Azide and hydrogen peroxide (H2O2) are added fresh. • Blocking buffer: 5% BSA in TBST (tris buffered saline plus 0.1% Tween 20). • Primary antibody: Rabbit anti-human Phospho-Akt antibody (Cell Signaling 9271): 1×250 diluted in blocking buffer. • Secondary antibody: HRP (horse radish peroxidase)-conjugated Goat anti-Rabbit secondary, stock solution: Jackson ImmunoResearch (Goat anti-Rabbit HRP, #111-035-144) 1:1 diluted in glycerol, store at −20° C. The working solution: 1×2000 dilution of stock in blocking buffer. • Chemiluminescent working solution (Pierce, 37030): SuperSignal ELISA (enzyme linked immunosorbant assay) Pico Chemiluminescent substrate. • Crystal Violet solution: Stock: 2.5% Crystal violet in methanol, filtered and kept at ambient temperature. The working solution: dilute the stock 1:20 with PBS immediately before use. • 10% SDS: working solution: 5% SDS (sodium dodecylsulfate), diluted in PBS Methods: Day 1:
A 96 well TC (tissue culture treated) plate was coated with 10 μg/mL poly-L-Lysine at 37° C. for 30 min, washed twice with PBS, and air-dried for 5 minutes before cells were added. Hela cells were seeded at 10,000 cells/well and the cells were starved in 100 μL starvation medium containing Axl/Fc for 24 hrs.
The cells were pre-treated with test compounds by adding 100 μL of 2× test compound to the starvation medium on the cells. The cells were incubated at 37° C. for 1 hr before stimulation.
The resulting mix was warmed to 37° C. 50 μL of 5×Axl 1st/2nd of antibody cluster was added to the cells and the cells were incubated at 37° C. for 5 min.
After 5 minutes stimulation, the plate was flicked to remove medium and the plate was tapped onto paper towels. Formaldehyde (4.0% in PBS, 100 μL) was added to fix the cells and the cells were incubated at ambient temperature for 20 min without shaking.
The cells were washed with a plate washer buffer to remove the formaldehyde solution. The plate was flicked to removed excess wash buffer and tapped onto paper towels. Quenching buffer (100 μL) was added to each well and the cells were incubated at ambient temperature for 20 minutes without shaking.
The cells were washed with a plate washer buffer to remove the quenching buffer. Blocking buffer (100 μL) was added and the cells were incubated at ambient temperature for at least an hour with gentle shaking.
The cells were washed with a plate washer buffer and diluted primary antibody (50 μL) was added to each well (blocking buffer was added to the negative control wells instead). The plates were incubated overnight at 4° C. with gentle shaking.
The wash buffer was removed, diluted secondary antibody (100 μL) was added, and the cells were incubated at ambient temperature for 1 hour with gentle shaking. During the incubation, the chemiluminescent reagent was brought to ambient temperature.
The secondary antibody was removed by washing the cells 1× with wash buffer, 1× with PBS by plate washer.
Turning to `Nc1nc(Nc2ccc(C(=O)NCCN3CCCC3)cc2)nn1-c1cc2c(nn1)-c1ccccc1CCC2` [Compound 12, 1-(6,7-dihydro-5H-benzo[6,7]cyclohepta[1,2-c]pyridazin-3-yl)-N^3-(4-((2-pyrrolidin-1-ylethyl)aminocarbonyl)phenyl)-1H-1,2,4-triazole-3,5-diamine], the IC50 is under 1000 nM.
Still for that read-out and setting: as for `Nc1nc(Nc2ccc(N3CC4CN(C5CCCC5)CC4C3)c(F)c2)nn1-c1cc2c(nn1)-c1ccccc1CCC2` (stereo not shown) [Compound 75, 1-(6,7-dihydro-5H-benzo[6,7]cyclohepta[1,2-c]pyridazin-3-yl)-N^3-(3-fluoro-4-(5-cyclopentyloctahydro-pyrrolo[3,4-c]pyrrolyl)phenyl)-1H-1,2,4-triazole-3,5-diamine], the figure is under 1000 nM; as for `CC(C)N1CCN(C2CCN(c3ccc(Nc4nc(N)n(-c5cc6c(nn5)-c5ccccc5CCC6)n4)cc3F)CC2)CC1` [Compound 80, 1-(6,7-dihydro-5H-benzo[6,7]cyclohepta[1,2-c]pyridazin-3-yl)-N^3-(3-fluoro-4-(4-(4-isopropylpiperazin-1-yl)piperidin-1-yl)phenyl)-1H-1,2,4-triazole-3,5-diamine], under 1000 nM.
For `CN1CCN(Cc2ccc(Nc3nc(N)n(-c4cc5c(nn4)-c4ccccc4CCC5)n3)cc2)CC1` [Compound 35, 1-(6,7-dihydro-5H-benzo[6,7]cyclohepta[1,2-c]pyridazin-3-yl)-N^3-(4-((4-methylpiperazin-1-yl)methyl)phenyl)-1H-1,2,4-triazole-3,5-diamine], the IC50 is under 1000 nM.

Staying with this assay, now noted: inhibition of Axl activity; Table 1, compounds of formula (Ia); read-out: IC50.
Turning to `CCN(CC)C1CCc2ccc(Nc3nc(N)n(-c4cc5c(nn4)-c4ccccc4CCC5)n3)cc2CC1` (stereo not shown) [Compound 185, 1-(6,7-dihydro-5H-benzo[6,7]cyclohepta[1,2-c]pyridazin-3-yl)-N^3-(7-diethylamino-6,7,8,9-tetrahydro-5H-benzo[7]annulene-2-yl)-1H-1,2,4-triazole-3,5-diamine], the IC50 is under 1000 nM.
For `Nc1nc(Nc2ccc(N3CCC(N4CCCC4)CC3)c(F)c2)nn1-c1cc2c(nn1)-c1ccc(Cl)cc1CCC2` [Compound 143, 1-(6,7-dihydro-9-chloro-5H-benzo[6,7]cyclohepta[1,2-c]pyridazin-3-yl)-N^3-(3-fluoro-4-(4-pyrrolidin-1-ylpiperidin-1-yl)phenyl)-1H-1,2,4-triazole-3,5-diamine], the IC50 is under 1000 nM.
For the compound `Nc1nc(Nc2ccc3c(c2)CCC(N2CCCCC2)CC3)nn1-c1cc2c(nn1)-c1ccccc1CCC2` (stereo not shown) [Compound 150, 1-(6,7-dihydro-5H-benzo[6,7]cyclohepta[1,2-c]pyridazin-3-yl)-N^3-((7-piperidin-1-yl)-6,7,8,9-tetrahydro-5H-benzo[7]annulene-2-yl)-1H-1,2,4-triazole-3,5-diamine], the IC50 is under 1000 nM.
On the same count and under the same terms, as for `Nc1nc(Nc2ccc(N3CCC(N4CCCC4)CC3)c(F)c2)nn1-c1cc2c(nn1)-c1ccccc1CCC2` [Compound 177, 1-(6,7-dihydro-5H-benzo[6,7]cyclohepta[1,2-c]pyridazin-3-yl)-N^3-(3-fluoro-4-(4-pyrrolidin-1-ylpiperidin-1-yl)phenyl)-1H-1,2,4-triazole-3,5-diamine], the figure is under 1000 nM; as for `Nc1nc(Nc2ccc(CCCN3CCCCC3)nc2)nn1-c1cc2c(nn1)-c1ccccc1CCC2` [Compound 142, 1-(6,7-dihydro-5H-benzo[6,7]cyclohepta[1,2-c]pyridazin-3-yl)-N^3-(6-(3-piperidin-1-yl)-propanylpyridin-3-yl)-1H-1,2,4-triazole-3,5-diamine], under 1000 nM.
Same read-out and setting: as for `Nc1nc(Nc2ccc(N3CCCN(C4CC5CCC4C5)CC3)nc2)nn1-c1cc2c(nn1)-c1ccccc1CCC2` (stereo not shown) [Compound 140, 1-(6,7-dihydro-5H-benzo[6,7]cyclohepta[1,2-c]pyridazin-3-yl)-N^3-(6-(4-(bicyclo[2.2.1]heptan-2-yl)-1,4-diazepan-1-yl)pyridin-3-yl)-1H-1,2,4-triazole-3,5-diamine], the figure is under 1000 nM.

The values above are taken from patent publication US7709482B2, “Polycyclic heteroaryl substituted triazoles useful as Axl inhibitors” (Rigel Pharmaceuticals, Inc., priority 2006, dated 2010).
